Holding throughout (format): binding
What all share (set-up): KINOMEscan: ABL1(F317L)-phosphorylated / KINOMEscan: ABL1(H396P)-nonphosphorylated / KINOMEscan: ABL1(H396P)-phosphorylated / KINOMEscan: ABL1(M351T)-phosphorylated / KINOMEscan: ABL1(T315I)-phosphorylated / KINOMEscan: ABL1-nonphosphorylated / KINOMEscan: ABL1-phosphorylated / KINOMEscan: ACVR2A / KINOMEscan: ACVR2B / KINOMEscan: ADCK3 / KINOMEscan: ADCK4 / KINOMEscan: AKT1 / KINOMEscan: AKT3 / KINOMEscan: ALK / KINOMEscan: ARK5 / KINOMEscan: AURKA / KINOMEscan: AURKC / KINOMEscan: BIKE / KINOMEscan: BMPR1A / KINOMEscan: BMPR1B / KINOMEscan: BMX / KINOMEscan: BRK / KINOMEscan: BRSK1 / KINOMEscan: BRSK2 / KINOMEscan: CAMK1 / KINOMEscan: CAMK1D / KINOMEscan: CAMK1G / KINOMEscan: CAMK2A / KINOMEscan: CAMK2B / KINOMEscan: AAK1 / KINOMEscan: CAMK2D / KINOMEscan: CAMK2G / KINOMEscan: ABL1(F317I)-nonphosphorylated / KINOMEscan: ABL1(F317I)-phosphorylated / KINOMEscan: ABL1(F317L)-nonphosphorylated: unit: % Ctrl

Assay [1] concerns the target T1, panel of 442 kinases (Homo sapiens, UniProt O75716).
T1 construct: purchased KINOMEscan
The following applies: kinase STK16; compound concentration 10 µM. An excerpt:
(§1) We assessed the selectivity of members of this scaffold using the KINOMEscan methodology across a near comprehensive panel of 442 kinases [[18,27]].

Assay [2] deals with T2, panel of 442 kinases (Homo sapiens, UniProt Q13882).
T2 construct: purchased KINOMEscan
The following applies: Compound Concentration 10 µM.
Excerpt: as §1

For assay [3], the target named is T3, panel of 442 kinases (Homo sapiens, UniProt Q15418).
T3 construct: purchased KINOMEscan
The following applies: Compound Concentration 10 µM.
Excerpt: as §1

Assay [4] concerns the target T4, panel of 442 kinases (Homo sapiens, UniProt P10721, D816V).
T4 construct: purchased KINOMEscan
The settings on record: Compound Concentration 10 µM.
Excerpt: as §1

Experimental findings from article PMC3914206 are described below.

T2 sequence (Q13882 whole entry): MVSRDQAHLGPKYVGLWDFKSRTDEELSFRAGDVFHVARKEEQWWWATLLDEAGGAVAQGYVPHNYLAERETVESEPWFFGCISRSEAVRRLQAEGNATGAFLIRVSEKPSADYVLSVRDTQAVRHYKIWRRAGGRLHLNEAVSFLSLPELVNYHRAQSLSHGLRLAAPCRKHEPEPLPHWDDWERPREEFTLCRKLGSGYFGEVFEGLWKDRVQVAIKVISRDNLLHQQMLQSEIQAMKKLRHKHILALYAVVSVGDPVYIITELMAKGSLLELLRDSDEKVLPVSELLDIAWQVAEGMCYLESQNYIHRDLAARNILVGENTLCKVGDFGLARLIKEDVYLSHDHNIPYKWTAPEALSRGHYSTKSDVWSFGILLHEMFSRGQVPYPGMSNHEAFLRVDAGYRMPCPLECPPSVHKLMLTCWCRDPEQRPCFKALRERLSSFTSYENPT
T1 sequence (O75716 whole entry): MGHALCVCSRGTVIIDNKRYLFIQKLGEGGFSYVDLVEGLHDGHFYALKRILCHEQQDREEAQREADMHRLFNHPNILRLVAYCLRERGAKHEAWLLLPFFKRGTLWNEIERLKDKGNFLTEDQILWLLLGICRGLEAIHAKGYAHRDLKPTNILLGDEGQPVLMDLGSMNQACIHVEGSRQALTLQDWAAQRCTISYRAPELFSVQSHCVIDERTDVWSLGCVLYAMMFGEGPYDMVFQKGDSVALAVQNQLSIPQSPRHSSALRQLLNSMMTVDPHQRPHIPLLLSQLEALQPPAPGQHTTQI
T4 sequence (P10721 26-976 D816V): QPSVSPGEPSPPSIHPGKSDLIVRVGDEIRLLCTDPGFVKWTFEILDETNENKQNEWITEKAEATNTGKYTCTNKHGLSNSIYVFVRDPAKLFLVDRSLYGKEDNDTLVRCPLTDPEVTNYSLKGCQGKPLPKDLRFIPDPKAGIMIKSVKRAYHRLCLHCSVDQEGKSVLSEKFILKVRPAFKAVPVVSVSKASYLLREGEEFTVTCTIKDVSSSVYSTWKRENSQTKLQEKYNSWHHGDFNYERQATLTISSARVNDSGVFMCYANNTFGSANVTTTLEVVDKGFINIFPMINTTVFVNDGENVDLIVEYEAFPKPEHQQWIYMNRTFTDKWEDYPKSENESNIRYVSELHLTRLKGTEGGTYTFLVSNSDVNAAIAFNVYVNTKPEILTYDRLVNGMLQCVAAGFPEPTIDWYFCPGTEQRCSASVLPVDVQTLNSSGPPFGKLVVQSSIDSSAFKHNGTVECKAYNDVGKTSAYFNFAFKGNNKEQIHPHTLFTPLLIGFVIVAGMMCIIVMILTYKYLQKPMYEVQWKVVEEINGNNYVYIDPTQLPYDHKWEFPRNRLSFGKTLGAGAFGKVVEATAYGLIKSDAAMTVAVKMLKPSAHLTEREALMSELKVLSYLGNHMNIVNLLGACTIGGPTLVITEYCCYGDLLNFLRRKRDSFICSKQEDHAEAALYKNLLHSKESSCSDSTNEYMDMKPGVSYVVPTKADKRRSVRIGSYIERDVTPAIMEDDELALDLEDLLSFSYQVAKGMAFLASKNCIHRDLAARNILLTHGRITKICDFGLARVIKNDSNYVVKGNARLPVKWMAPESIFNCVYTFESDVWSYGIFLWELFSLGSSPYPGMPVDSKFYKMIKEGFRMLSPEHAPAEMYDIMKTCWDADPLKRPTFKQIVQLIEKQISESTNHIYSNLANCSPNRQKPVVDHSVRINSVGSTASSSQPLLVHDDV
T3 sequence (Q15418 whole entry): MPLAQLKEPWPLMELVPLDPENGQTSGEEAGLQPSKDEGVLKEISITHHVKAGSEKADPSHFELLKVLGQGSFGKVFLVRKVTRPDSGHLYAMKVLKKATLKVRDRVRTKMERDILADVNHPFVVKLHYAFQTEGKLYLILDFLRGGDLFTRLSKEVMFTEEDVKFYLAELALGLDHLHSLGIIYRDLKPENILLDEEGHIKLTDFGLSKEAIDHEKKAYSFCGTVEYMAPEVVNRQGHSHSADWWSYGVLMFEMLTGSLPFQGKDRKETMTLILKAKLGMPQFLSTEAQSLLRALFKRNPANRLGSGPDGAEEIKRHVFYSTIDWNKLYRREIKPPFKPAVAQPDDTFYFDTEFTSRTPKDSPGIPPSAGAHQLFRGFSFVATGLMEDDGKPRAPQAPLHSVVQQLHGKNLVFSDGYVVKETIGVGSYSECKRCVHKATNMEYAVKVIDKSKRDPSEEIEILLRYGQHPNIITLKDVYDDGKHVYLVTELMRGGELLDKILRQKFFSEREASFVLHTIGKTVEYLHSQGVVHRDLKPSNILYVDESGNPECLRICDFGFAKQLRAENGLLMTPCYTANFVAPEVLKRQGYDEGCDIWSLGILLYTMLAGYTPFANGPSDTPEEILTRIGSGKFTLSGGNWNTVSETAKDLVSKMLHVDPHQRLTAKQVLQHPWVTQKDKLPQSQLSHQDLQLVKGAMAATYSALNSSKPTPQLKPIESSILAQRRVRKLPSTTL

Take `COc1cc(C(=O)N2CCC(N3CCN(C)CC3)CC2)ccc1Nc1ncc2c(n1)N(C)c1ccccc1C(=O)N2C` [15 (LRRK2-IN-1)]: the “% Ctrl, STK16” value at panel of 442 kinases [1] came out at 62 % Ctrl. In addition, the “KINOMEscan: BRK” value on panel of 442 kinases [2] was found to be 58. On panel of 442 kinases [3], the “KINOMEscan: RSK1(Kin.Dom.1-N-terminal)” value amounted to 73 and the “KINOMEscan: RSK1(Kin.Dom.2-C-terminal)” value worked out at 10. Also, the “KINOMEscan: KIT(D816V)” value on panel of 442 kinases [4] stood at 72.
As for `COc1cc(C(=O)N2CCC(N3CCN(C)CC3)CC2)ccc1Nc1ncc2c(n1)N1CCc3cccc(c31)C(=O)N2C` [Compound 24], the “% Ctrl, STK16” value at panel of 442 kinases [1] was 50 % Ctrl. Moreover, the “KINOMEscan: BRK” value on panel of 442 kinases [2] was 54. For the same compound, on panel of 442 kinases [3], the “KINOMEscan: RSK1(Kin.Dom.1-N-terminal)” value amounted to 71 and the “KINOMEscan: RSK1(Kin.Dom.2-C-terminal)” value came out at 22.
For `COc1cc(C(=O)N2CCC(N3CCN(C)CC3)CC2)ccc1Nc1ncc2c(n1)N(C1CCCC1)c1ccccc1C(=O)N2C` [Compound 25, 11-cyclopentyl-2-((2-methoxy-4-(4-(4-methylpiperazin-1-yl)piperidine-1-carbonyl)phenyl)amino)-5-methyl-5H-benzo[e]pyrimido[5,4-b][1,4]diazepin-6(11H)-one], the “% Ctrl, STK16” value on panel of 442 kinases [1] is 75 % Ctrl. Further, the “KINOMEscan: BRK” value at panel of 442 kinases [2] was 29. Further, at panel of 442 kinases [3], the “KINOMEscan: RSK1(Kin.Dom.1-N-terminal)” value turned out to be 75 and the “KINOMEscan: RSK1(Kin.Dom.2-C-terminal)” value came out at 63. Also, the “KINOMEscan: KIT(D816V)” value at panel of 442 kinases [4] was 92.
The corresponding values for `CCOc1cc(C(=O)N2CCC(N3CCN(C)CC3)CC2)ccc1Nc1ncc2c(n1)N(C1CCCC1)c1ccccc1C(=O)N2C` [Compound 26] are 99 % Ctrl, 62, 100, 88 and 96.
